A short description of data set [1]: Solubility of coenzyme Q10 in oils, surfactants and co-surfactants. The class given is physicochemical. The procedure: To determine suitable excipient systems for actives, solubility studies were carried out on a variety of constituents of the inventive SMEDDS formulations. The solubility of Q10 in various oils, surfactants and co-surfactants were determined by placing an excess of the Q10 (approximately 2.5 g) in 22.5 g of the vehicle in screw capped glass bottles and heating the mixture to 55° C. in a water bath to facilitate the solubilization. Mixtures were equilibrated at room temperature for 24 hours and then filtered through 0.45 μm membrane filter to separate the undissolved drug. One gram of the filtered liquid mixtures were then weighed and diluted with cyclohexane and quantified by UV/Visible Spectrometry. Lemon oil and isopropyl myristate provided higher solubility than other oils. Although not limited to a theory of operation, it is believed that the oils form a distinct core in the interior of the surfactant aggregate when being dispersed in water, resulting in enhanced solubilizing capacity of the oils with improved drug loading capabilities of the emulsion.

For data set [2] the following is noted: cited from earlier work.

The source of these data is patent publication US8252326B2, “Self-microemulsifying dosage forms of low solubility active ingredients such as co-enzyme Q10” (Catalent Australia Pty Ltd., priority 2005, dated 2012).

With `COC1=C(OC)C(=O)C(C/C=C(\C)CC/C=C(\C)CC/C=C(\C)CC/C=C(\C)CC/C=C(\C)CC/C=C(\C)CC/C=C(\C)CC/C=C(\C)CC/C=C(\C)CCC=C(C)C)=C(C)C1=O` [Coenzyme Q10], the “Solubility of coenzyme Q10 (% w/w)” value in data set [1] (in Acetylated monoglycerides, room temperature 24 hours) is reported as 7.5 % w/w; in data set [1] (in Capmul MCM C8, room temperature 24 hours), 1.50 % w/w; in data set [1] (in Glyceryl mono-oleate, room temperature 24 hours), 2.41 % w/w; in data set [1] (in Isopropyl myristate, room temperature 24 hours), 11.2 % w/w; in data set [1] (in Labrafac Hydro WL1219, room temperature 24 hours), 3.17 % w/w; in data set [1] (in Labrafil M 1944, room temperature 24 hours), 5.91 % w/w. Further, the “Solubility of coenzyme Q10 (% w/w)” value was found to be 5.35 % w/w in data set [1] (in Labrafil M 2125, room temperature 24 hours); 3.05 % w/w in data set [1] (in Lauroglyco 1 FCC, room temperature 24 hours); 3.06 % w/w in data set [1] (in Lauroglyco 190, room temperature 24 hours); 24.3 % w/w in data set [1] (in Lemon oil, equilibrated at room temperature 24 hours, 0.45 μm filtered); 3.74 % w/w in data set [1] (in Medium chain triglycerides, room temperature 24 hours); 3.80 % w/w in data set [1] (in Oleic acid, room temperature 24 hours). In addition, the “Solubility of coenzyme Q10 (% w/w)” value worked out at 2.34 % w/w in data set [1] (in PEG 35 Castor oil, room temperature 24 hours); 0.370 % w/w in data set [1] (in Polysorbate 80, room temperature 24 hours); 1.57 % w/w in data set [1] (in Polysorbate 85, room temperature 24 hours); 3.24 % w/w in data set [1] (in Span 80, room temperature 24 hours); 0.260 % w/w in data set [1] (in Transcutol P, room temperature 24 hours). Further, the Solubility in water result in data set [2] was “practically insoluble in water”.
